Reference: patent publication US9540391B2, “Isomannide derivatives as inhibitors of soluble epoxide hydrolase” (SANOFI, priority 2013, dated 2017)
Counter-ions that a name gives are not always drawn.

Each compound was assayed against T1, recombinant sEH (Homo sapiens, UniProt P34913) (assay: biochemical screening assay for inhibition of soluble epoxide hydrolase (fluorometric, Phome substrate)).
T1 construct: made in house; host or cells: Sf9 insect cells
T1 sequence (P34913 1-555): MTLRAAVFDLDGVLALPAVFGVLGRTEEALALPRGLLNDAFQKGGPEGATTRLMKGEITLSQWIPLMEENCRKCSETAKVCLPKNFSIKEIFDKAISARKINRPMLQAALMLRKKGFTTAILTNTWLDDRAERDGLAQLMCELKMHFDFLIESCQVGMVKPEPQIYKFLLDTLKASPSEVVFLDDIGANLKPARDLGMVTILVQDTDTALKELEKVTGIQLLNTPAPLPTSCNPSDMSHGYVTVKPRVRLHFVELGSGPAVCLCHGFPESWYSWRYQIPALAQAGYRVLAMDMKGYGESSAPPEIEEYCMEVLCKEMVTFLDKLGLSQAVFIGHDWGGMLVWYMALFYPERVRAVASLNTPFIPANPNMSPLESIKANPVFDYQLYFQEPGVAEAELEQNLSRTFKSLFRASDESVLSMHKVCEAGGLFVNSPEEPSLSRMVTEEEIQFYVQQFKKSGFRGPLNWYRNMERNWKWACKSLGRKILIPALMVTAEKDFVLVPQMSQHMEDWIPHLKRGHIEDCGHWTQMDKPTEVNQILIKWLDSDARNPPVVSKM
Method: The ability of the compounds of the formula I to inhibit soluble epoxide hydrolase can be determined as follows:
Compounds were tested in a biochemical screening assay using recombinant sEH purified from Sf9 insect cells and an artificial substrate, (3-phenyl-oxiranyl)-acetic acid cyano-(6-methoxy-naphtalen-2-yl)-methyl ester, Phome. The biochemical assay was performed in analogy to a fluorometric method described in the literature (P. D. Jones et al., Anal. Biochem. 2005, 343, 66-75). The assay principle bases on the sEH-catalyzed hydrolysis of an artificial α-cyano-ester substrate. 0-deacetylation liberates a cyanohydrin intermediate that rapidly decomposes to the highly fluorescent 6-methoxy-2-naphtaldehyde. To discriminate sample autofluorescence, the assay was carried out as a kinetic measurement with two time points. The first measurement is performed immediately before addition of the substrate and the second measurement is done after completion of the assay. The assay format is either in 96- or in 384-well format. Details of the assay using a 96-well plate format are described below. 40 μL recombinant sEH enzyme and 5 μL test compound are pre-incubated for 15 minutes at 30° C. Following pre-incubation, the reaction is started by addition of 5 μL Phome. The assay mixture containing 2 nM final sEH concentration, test compound ranging in a concentration from 0.0001-10 μM and 5 μM Phome is incubated for 60 minutes at 30° C.
Fluorescence can be measured with any suitable detector for instance a TECAN Safire or Tecan Ultra at […]. % inhibition of recombinant sEH activity is used for calculation of corresponding IC50 values as illustrated and described in the examples.
The NCBI gene bank reference sequence with the accession number NM_001979 for EPHX2/sEH was applied for recombinant protein production:
The following commercially available materials have been used: • Incubation reagent: 25 mM Hepes (Sigma-Aldrich, Cat. No H-3375), 0.01% bovine albumin (Sigma-Aldrich Cat. No PA9205) • Substrate: 3-Phenyl-oxiranyl)-acetic acid cyano-(6-methoxy-naphtalen-2-yl)-methyl ester, Phome (Biozol Cat. No 10003134) • Microtiter plates: 96-well plates (Greiner Cat. No 655180; Costar Cat. No 3915)

SMILES	IC50 [nM]
COc1ccc([C@@H](C)NC(=O)N[C@H]2CO[C@H]3[C@@H]2OC[C@@H]3Oc2ccc(F)cc2)cc1 [Example 168, 1-[(3S,3aR,6S,6aS)-6-(4-Fluoro-phenoxy)-hexahydro-furo[3,2-b]furan-3-yl]-3-[(R)-1-(4-methoxy-phenyl)-ethyl]-urea]	6
CN(C)C[C@H]1CO[C@H]2[C@@H]1OC[C@@H]2NC(=O)NC1CCCCC1 [Example 9, 1-cyclohexyl-3-((3S,3aR,6S,6aR)-6-dimethylaminomethyl-hexahydro-furo[3,2-b]furan-3-yl)-urea; trifluoroacetate]	450
O=C(NC1CCCCC1)N[C@H]1CO[C@H]2[C@@H]1OC[C@@H]2Oc1ccc(F)c(Br)c1 [Example 146, 1-[(3S,3aR,6S,6aS)-6-(3-Bromo-4-fluoro-phenoxy)-hexahydro-furo[3,2-b]furan-3-yl]-3-cyclohexyl-urea]	2
O=C(NC1CCCCC1)N[C@H]1CO[C@H]2[C@@H]1OC[C@@H]2Oc1ccccc1 [Example 115, 1-Cyclohexyl-3-((3S,3aR,6S,6aS)-6-phenoxy-hexahydro-furo[3,2-b]furan-3-yl)-urea]	3
O=C(Nc1cccc(C(F)(F)F)c1)N[C@H]1CO[C@H]2[C@@H]1OC[C@@H]2/C=C\c1ccsc1 [Example 346, 1-[(3S,3aR,6S,6aR)-6-((Z)-2-Thiophen-3-yl-vinyl)-hexahydro-furo[3,2-b]furan-3-yl]-3-(3-trifluoromethyl-phenyl)-urea]	62
O=C(NC1CCCCC1)N[C@H]1CO[C@H]2[C@@H]1OC[C@@H]2Oc1ccc(-n2cncn2)cc1 [Example 112, 1-Cyclohexyl-3-[(3S,3aR,6S,6aS)-6-(4-[1,2,4]triazol-1-yl-phenoxy)-hexahydro-furo[3,2-b]furan-3-yl]-urea; trifluoroacetate]	1
Cc1ncccc1O[C@H]1CO[C@H]2[C@@H]1OC[C@@H]2NC(=O)NCc1cnn(C)c1 [Example 192, 1-(1-Methyl-1H-pyrazol-4-ylmethyl)-3-[(3S,3aR,6S,6aS)-6-(2-methyl-pyridin-3-yloxy)-hexahydro-furo[3,2-b]furan-3-yl]-urea]	1730
Cc1ncccc1O[C@H]1CO[C@H]2[C@@H]1OC[C@@H]2NC(=O)NC1(c2cccnc2)CC1 [Example 238, 1-[(3S,3aR,6S,6aS)-6-(2-Methyl-pyridin-3-yloxy)-hexahydro-furo[3,2-b]furan-3-yl]-3-(1-pyridin-3-yl-cyclopropyl)-urea]	2060
Cc1ncccc1O[C@H]1CO[C@H]2[C@@H]1OC[C@@H]2NC(=O)NC(C)(C)c1ccncc1 [Example 250, 1-(1-Methyl-1-pyridin-4-yl-ethyl)-3-[(3S,3aR,6S,6aS)-6-(2-methyl-pyridin-3-yloxy)-hexahydro-furo[3,2-b]furan-3-yl]-urea]	3120
Cc1ncccc1OC1COC2C(NC(=O)NC3CC4CCC3(C)C4(C)C)COC12 [Example 231, 1-[(2R,3aS,5S,6S)-6-(2-Methyl-pyridin-3-yloxy)-hexahydro-furo[3,2-b]furan-3-yl]-3-((1R,4R)-1,7,7-trimethyl-bicyclo[2.2.1]hept-2-yl)-urea]	10
N#Cc1ncccc1O[C@H]1CO[C@H]2[C@@H]1OC[C@@H]2NC(=O)NC1CCCCC1 [Example 40, 1-[(3S,3aR,6S,6aS)-6-(2-Cyano-pyridin-3-yloxy)-hexahydro-furo[3,2-b]furan-3-yl]-3-cyclohexyl-urea]	11
Cc1ncccc1O[C@H]1CO[C@H]2[C@@H]1OC[C@@H]2NC(=O)N[C@H]1CC[C@@H](C)CC1 [Example 272, 1-(cis-4-Methyl-cyclohexyl)-3-[(3S,3aR,6S,6aS)-6-(2-methyl-pyridin-3-yloxy)-hexahydro-furo[3,2-b]furan-3-yl]-urea]	1
Cc1nc(S[C@H]2CO[C@H]3[C@@H]2OC[C@@H]3NC(=O)NC2CCCCC2)sc1C [Example 62, 1-Cyclohexyl-3-[(3S,3aR,6S,6aS)-6-(4,5-dimethyl-thiazol-2-ylsulfanyl)-hexahydro-furo[3,2-b]furan-3-yl]-urea]	1
COC1COCCC1NC(=O)N[C@H]1CO[C@H]2[C@@H]1OC[C@@H]2Oc1cccnc1C (stereo partly drawn) [Example 78, 1-(3-methoxy-tetrahydro-pyran-4-yl)-3-[(3S,3aR,6S,6aS)-6-(2-methyl-pyridin-3-yloxy)-hexahydro-furo[3,2-b]furan-3-yl]-urea; hydrochloride]	1330
COc1cc(NC(=O)N[C@H]2CO[C@H]3[C@@H]2OC[C@@H]3C#Cc2ccsc2)cc(OC)c1 [Example 301, 1-(3,5-Dimethoxy-phenyl)-3-((3S,3aR,6S,6aR)-6-thiophen-3-ylethynyl-hexahydro-furo[3,2-b]furan-3-yl)-urea]	104
Cc1ncccc1O[C@H]1CO[C@H]2[C@@H]1OC[C@@H]2NC(=O)NC1CC(C)CCC1C(C)C (stereo partly drawn) [Example 263, 1-(2-Isopropyl-5-methyl-cyclohexyl)-3-[(3S,3aR,6S,6aS)-6-(2-methyl-pyridin-3-yloxy)-hexahydro-furo[3,2-b]furan-3-yl]-urea]	25
Cc1ncccc1O[C@H]1CO[C@H]2[C@@H]1OC[C@@H]2NC(=O)N[C@H]1CC[C@H](C)CC1 [Example 267, 1-(trans-4-Methyl-cyclohexyl)-3-[(3S,3aR,6S,6aS)-6-(2-methyl-pyridin-3-yloxy)-hexahydro-furo[3,2-b]furan-3-yl]-urea]	2
O=C(Nc1ccc2c(c1)CCC2)N[C@H]1CO[C@H]2[C@@H]1OC[C@@H]2C#Cc1ccsc1 [Example 310, 1-Indan-5-yl-3-((3S,3aR,6S,6aR)-6-thiophen-3-ylethynyl-hexahydro-furo[3,2-b]furan-3-yl)-urea]	73
O=C(Nc1ccccc1)N[C@H]1CO[C@H]2[C@@H]1OC[C@@H]2/C=C\c1ccsc1 [Example 337, 1-Phenyl-3-[(3S,3aR,6S,6aR)-6-((Z)-2-thiophen-3-yl-vinyl)-hexahydro-furo[3,2-b]furan-3-yl]-urea]	423
O=C(NC1CCCCC1)N[C@H]1CO[C@H]2[C@@H]1OC[C@@H]2Oc1ccccc1Cl [Example 98, 1-[(3S,3aR,6S,6aS)-6-(2-Chloro-phenoxy)-hexahydro-furo[3,2-b]furan-3-yl]-3-cyclohexyl-urea]	2
Cc1cncc(O[C@H]2CO[C@H]3[C@@H]2OC[C@@H]3NC(=O)NC2CCCCC2)c1 [Example 36, 1-Cyclohexyl-3-[(3S,3aR,6S,6aS)-6-(5-methyl-pyridin-3-yloxy)-hexa-hydro-furo[3,2-b]furan-3-yl]-urea]	1
O=C(NC1CCCCC1)N[C@H]1CO[C@H]2[C@@H]1OC[C@@H]2SC1CCCCC1 [Example 12, 1-cyclohexyl-3-((3S,3aR,6S,6aS)-6-cyclohexylsulfanyl-hexahydro-furo[3,2-b]furan-3-yl)-urea]	1
O=C(NCc1ccc(F)cc1)NC1COC2C(C=Cc3ccccc3)COC12 [Example 325, 1-(4-Fluoro-benzyl)-3-[(3S,3aR,6R)-6-((S)-(Z)-styryl)-hexahydro-furo[3,2-b]furan-3-yl]-urea]	75
O=C(NC1CCCCC1)N[C@H]1CO[C@H]2[C@@H]1OC[C@@H]2/C=C\c1ccccn1 [Example 334, 1-Cyclohexyl-3-[(3S,3aR,6S,6aR)-6-((Z)-2-pyridin-2-yl-vinyl)-hexahydro-furo[3,2-b]furan-3-yl]-urea; trifluoroacetate]	159
